# Legend:
# [1] = test system: ryegrass, Italian; experiment: Test C pre-/postemergence herbicide test; format: in vivo, Lolium multiflorum
# How it was run: (§1)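 Test compounds, formulated in a surfactant-containing non-phytotoxic solvent blend, are applied to seeded loam/sand soil (preemergence) and to young plants at the 1- to 4-leaf stage in peat-based medium (postemergence). Plants stay 13 to 15 days under greenhouse conditions, then are scored visually relative to controls, 0 = no effect, 100 = complete control.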
# [2] = test system: oilseed rape; experiment: Test C pre-/postemergence herbicide test; format: in vivo, Brassica napus
# How it was run: as §1
# [3] = test system: rice; experiment: Test B flooded paddy test; format: in vivo, Oryza sativa; settings: Flood, scale of 0 to 100 where 0 is no effect and 100 is complete control
# How it was run: (§2)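 Treatment was made at the 2-leaf stage by dosing the standing floodwater, kept 3 cm above soil level for the whole test. Greenhouse exposure lasted 13 to 15 days. Response is a visual percent rating relative to controls, where a dash indicates no test result.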
# [4] = test system: pigweed; experiment: Test C pre-/postemergence herbicide test; format: in vivo, Amaranthus retroflexus
# How it was run: as §1
# [5] = test system: wheat; experiment: Test A pre-/postemergence herbicide test; format: in vivo, Triticum aestivum
# How it was run: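 Planted in loam–sand blend; treated the same day preemergence by directed soil spray, while separately grown plants at one- to two-leaf stage got postemergence spray. Compared visually with untreated controls after approximately 10 days; 100 means complete control.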
# [6] = test system: nutsedge, yellow; experiment: Test C pre-/postemergence herbicide test; format: in vivo, Cyperus esculentus
# How it was run: as §1
# [7] = test system: johnsongrass; experiment: Test C pre-/postemergence herbicide test; format: in vivo, Sorghum halepense
# How it was run: as §1
# [8] = test system: soybean; experiment: Test C pre-/postemergence herbicide test; format: in vivo, Glycine max
# How it was run: as §1
# [9] = test system: sedge, umbrella; experiment: Test B flooded paddy test; format: in vivo, Cyperus difformis; settings: Flood, scale of 0 to 100 where 0 is no effect and 100 is complete control
# How it was run: as §2
# [10] = test system: ducksalad; experiment: Test B flooded paddy test; format: in vivo, Heteranthera limosa; settings: Flood, scale of 0 to 100 where 0 is no effect and 100 is complete control
# How it was run: as §2
# [11] = test system: ragweed; experiment: Test C pre-/postemergence herbicide test; format: in vivo, Ambrosia elatior
# How it was run: as §1
# [12] = test system: corn; experiment: Test C pre-/postemergence herbicide test; format: in vivo, Zea mays
# How it was run: as §1
# [13] = test system: barnyardgrass; experiment: Test B flooded paddy test; format: in vivo, Echinochloa crus-galli; settings: Flood, scale of 0 to 100 where 0 is no effect and 100 is complete control
# How it was run: as §2
# [14] = Preemergence, 31 g ai/ha, scale 0 to 100, 0 is no effect and 100 is complete control
# [15] = Preemergence, 62 g ai/ha, scale 0 to 100 (0 no effect, 100 complete control)
# [16] = Preemergence, 125 g ai/ha, scale 0 to 100 (0 no effect, 100 complete control)
# [17] = Postemergence, 500 g ai/ha, 0 to 100 scale (0 no effect, 100 complete control)
# [18] = Postemergence, 31 g ai/ha, scale 0 to 100 (0 no effect, 100 complete control)
# [19] = Postemergence, 62 g ai/ha, scale 0 (no effect) to 100 (complete control)
# [20] = Postemergence, 125 g ai/ha, scale 0 to 100 (0 no effect, 100 complete control)
# [21] = Postemergence, 250 g ai/ha, scale 0 to 100 (0 no effect, 100 complete control)
# [22] = Preemergence, 125 g ai/ha, scale 0 to 100
smiles,measurement,setting,value
O=C1NCC(c2ccc(C(F)(F)F)c(F)c2)C1C(=O)Nc1cccc(F)c1F (racemic) [Compound 247],"Ryegrass, Italian plant response rating",[1]; [14],0
same,"Ryegrass, Italian plant response rating",[1]; [15],35
same,"Plant response rating, Ryegrass, Italian",[1]; [16],40
same,"Plant response rating (scale of 0 to 100), Ryegrass, Italian","[1]; Preemergence, 250 g ai/ha",50
same,Oilseed Rape plant response rating,[2]; [14],5
same,Oilseed Rape plant response rating,[2]; [15],30
same,"Plant response rating, Oilseed Rape",[2]; [16],30
same,"Plant response rating (scale of 0 to 100), Oilseed Rape","[2]; Preemergence, 250 g ai/ha",80
same,"Plant response rating, Rice",[3]; 1000 g ai/ha,0
same,Pigweed plant response rating,[4]; [14],0
same,Pigweed plant response rating,[4]; [15],55
same,"Plant response rating, Pigweed",[4]; [16],85
same,"Plant response rating (scale of 0 to 100), Pigweed","[4]; Preemergence, 250 g ai/ha",90
same,"Plant response rating, Wheat","[5]; Postemergence, 125 g ai/ha, 0 to 100 scale, 0 is no effect, 100 is complete control",0
same,"Plant response rating, Wheat",[5]; [17],30
same,"Plant response rating, Wheat","[5]; Preemergence, 125 g ai/ha, 0 to 100 scale where 0 is no effect and 100 is complete control",0
same,"Plant response rating, Wheat","[5]; preemergence, 500 g ai/ha, 0 to 100 scale, 0 is no effect and 100 is complete control",0
same,"Nutsedge, Yellow plant response rating",[6]; [14],0
same,"Nutsedge, Yellow plant response rating",[6]; [15],20
same,"Plant response rating, Nutsedge, Yellow",[6]; [16],20
same,"Plant response rating (scale of 0 to 100), Nutsedge, Yellow","[6]; Preemergence, 250 g ai/ha",0
same,Johnsongrass plant response rating,[7]; [14],0
same,Johnsongrass plant response rating,[7]; [15],0
same,"Plant response rating, Johnsongrass",[7]; [16],10
same,"Plant response rating (scale of 0 to 100), Johnsongrass","[7]; Preemergence, 250 g ai/ha",5
same,Soybean plant response rating,[8]; [14],0
same,Soybean plant response rating,[8]; [15],0
same,"Plant response rating, Soybean",[8]; [16],0
same,"Plant response rating (scale of 0 to 100), Soybean","[8]; Preemergence, 250 g ai/ha",0
same,"Plant response rating, Sedge, Umbrella",[9]; 1000 g ai/ha,0
same,"Plant response rating, Ducksalad",[10]; 1000 g ai/ha,95
same,Ragweed plant response rating,[11]; [14],100
same,Ragweed plant response rating,[11]; [15],85
same,"Plant response rating, Ragweed",[11]; [16],70
same,"Plant response rating (scale of 0 to 100), Ragweed","[11]; Preemergence, 250 g ai/ha",98
same,Corn plant response rating,[12]; [14],5
same,Corn plant response rating,[12]; [15],15
same,"Plant response rating, Corn",[12]; [16],60
same,"Plant response rating (scale of 0 to 100), Corn","[12]; Preemergence, 250 g ai/ha",60
same,"Plant response rating, Barnyardgrass",[13]; 1000 g ai/ha,85
O=C1NCC(c2cccc(OC(F)F)c2)C1C(=O)Nc1cccc(F)c1F (stereo not shown) [Compound 324],"Plant response rating, Ryegrass, Italian",[1]; [18],0
same,"Plant response rating, Ryegrass, Italian",[1]; [19],0
same,"Plant response rating, Ryegrass, Italian",[1]; [20],0
same,"Plant response rating, Ryegrass, Italian",[1]; [21],0
same,"Ryegrass, Italian plant response rating",[1]; [15],10
same,"Plant response rating, Ryegrass, Italian",[1]; [22],35
same,"Plant response rating, Oilseed Rape",[2]; [18],0
same,"Plant response rating, Oilseed Rape",[2]; [19],0
same,"Plant response rating, Oilseed Rape",[2]; [20],0
same,"Plant response rating, Oilseed Rape",[2]; [21],0
same,Oilseed Rape plant response rating,[2]; [14],0
same,Oilseed Rape plant response rating,[2]; [15],70
same,"Plant response rating, Oilseed Rape",[2]; [22],85
same,"Plant response rating (scale of 0 to 100), Oilseed Rape","[2]; Preemergence, 250 g ai/ha",90
same,"Plant response rating, Rice",[3]; 500 g ai/ha,30
same,"Plant response rating, Pigweed",[4]; [18],0
same,"Plant response rating, Pigweed",[4]; [19],35
same,"Plant response rating, Pigweed",[4]; [20],65
same,"Plant response rating, Pigweed",[4]; [21],55
same,Pigweed plant response rating,[4]; [14],55
same,Pigweed plant response rating,[4]; [15],75
same,"Plant response rating, Pigweed",[4]; [22],80
same,"Plant response rating, Wheat","[5]; Postemergence, 125 g ai/ha, visual rating on 0 to 100 scale (0 no effect, 100 complete control), approx. 10 days",30
same,"Plant response rating, Wheat",[5]; [17],80
same,"Plant response rating, Nutsedge, Yellow",[6]; [18],0
same,"Plant response rating, Nutsedge, Yellow",[6]; [19],0
same,"Plant response rating, Nutsedge, Yellow",[6]; [20],0
same,"Plant response rating, Nutsedge, Yellow",[6]; [21],0
same,"Nutsedge, Yellow plant response rating",[6]; [14],0
same,"Nutsedge, Yellow plant response rating",[6]; [15],0
same,"Plant response rating, Nutsedge, Yellow",[6]; [22],0
same,"Plant response rating (scale of 0 to 100), Nutsedge, Yellow","[6]; Preemergence, 250 g ai/ha",35
same,"Plant response rating, Johnsongrass",[7]; [18],0
same,"Plant response rating, Johnsongrass",[7]; [19],0
same,"Plant response rating, Johnsongrass",[7]; [20],0
same,"Plant response rating, Johnsongrass",[7]; [21],10
same,Johnsongrass plant response rating,[7]; [14],40
same,Johnsongrass plant response rating,[7]; [15],65
same,"Plant response rating, Johnsongrass",[7]; [22],80
same,"Plant response rating (scale of 0 to 100), Johnsongrass","[7]; Preemergence, 250 g ai/ha",85
same,"Plant response rating, Soybean",[8]; [18],0
same,"Plant response rating, Soybean",[8]; [19],5
same,"Plant response rating, Soybean",[8]; [20],0
same,"Plant response rating, Soybean",[8]; [21],0
same,Soybean plant response rating,[8]; [15],0
same,"Plant response rating, Soybean",[8]; [22],0
same,"Plant response rating, Sedge, Umbrella",[9]; 500 g ai/ha,0
same,"Plant response rating, Ducksalad",[10]; 500 g ai/ha,100
same,"Plant response rating, Ragweed",[11]; [18],5
same,"Plant response rating, Ragweed",[11]; [19],20
same,"Plant response rating, Ragweed",[11]; [20],25
same,"Plant response rating, Ragweed",[11]; [21],40
same,Ragweed plant response rating,[11]; [15],60
same,"Plant response rating, Ragweed",[11]; [22],75
same,"Plant response rating, Corn",[12]; [18],0
same,"Plant response rating, Corn",[12]; [19],0
same,"Plant response rating, Corn",[12]; [20],55
same,"Plant response rating, Corn",[12]; [21],0
same,Corn plant response rating,[12]; [14],25
same,Corn plant response rating,[12]; [15],70
same,"Plant response rating, Corn",[12]; [22],75
same,"Plant response rating (scale of 0 to 100), Corn","[12]; Preemergence, 250 g ai/ha",85
same,"Plant response rating, Barnyardgrass",[13]; 500 g ai/ha,80
